One assay relates to Mycoplasma gallisepticum. Put plainly: in vitro tube dilution test (MIC). It counts as cell-based. To be noted: Mycoplasmoides gallisepticum; Mycoplasma gallisepticum, tube dilution; read-out: MIC. The source says: (§1) Our compound, 1-(2-hydroxyethyl)-3-nitro-4-pyrazolecarboxamide, has been extensively tested in vitro to determine the range of microorganisms against which it is active. The table of data below reports the minimum inhibitory concentration (MIC) at which the compound is effective in controlling a variety of microorganisms in a standard tube dilution test system. The MIC is reported as micrograms of compound per milliliter.
(§2) Other compounds of our invention have also been tested in the tube dilution test and shown to have in vitro activity against a number of microorganisms. The table below reports tests of a number of exemplary compounds against exemplary microorganisms. The compounds are identified by their numbers in the listing above. The data are reported as the MIC in micrograms per milliliter against the named exemplary microorganisms.

Another assay deals with Escherichia coli. The assay is described as follows: in vitro tube dilution test (MIC). To be noted: tube dilution, read-out: MIC. It is filed as cell-based.
From the text: as §1, §2

A further assay has as its system Pasteurella multocida. Put plainly: in vitro tube dilution test (MIC). It counts as cell-based. To be noted: tube dilution, read-out: MIC.
From the text: as §1
(§3) The other preferred compounds of our invention have also been thoroughly tested in the in vitro tube dilution test.
as §2

For another assay, the system named is Salmonella typhimurium. Put plainly: Salmonellosis in chickens, single injection to day-old chicks. It is filed as in vivo. To be noted: Salmonella enterica, TYPHIMURIUM, 168 h; single injection of 60 mg./kg.; seven days; read-out: Survival (converted). The method, then:
A number of our 3-nitropyrazoles have been tested against an induced infection of Salmonella typhimurium in day-old chicks. The test was conducted by administering a single injection of 60 mg./kg. of the compounds to each of five chicks. The following day, the chicks were challenged by the subcutaneous injection of a dispersion of S. typhimurium organisms sufficient to kill most or all of the untreated control chicks.
Some of the compounds were tested more than once, in which instances the data are reported as the total survivors from the multiple treatment groups. Untreated, challenged control groups of chicks were tested together with each batch of groups of chicks to which test compounds were administered. Since the mortality of the untreated control chicks varied somewhat from one group of tests to another, results of the untreated control groups are reported below with each test.

Another assay has as its system Vibrio coli 3811. The assay is described as follows: in vitro tube dilution test (MIC). It is filed as cell-based. To be noted: Campylobacter coli; Vibrio coli 3811, tube dilution; read-out: MIC.
From the text: as §3, §2

The test system of a further assay is Salmonella dublin. Put plainly: in vitro tube dilution test (MIC). It counts as cell-based. To be noted: Salmonella enterica; Salmonella dublin, tube dilution; read-out: MIC.
From the text: as §3, §2

Assay [1] concerns Staphylococcus aureus sp. 1130. The assay is described as follows: in vitro tube dilution test (MIC). It counts as cell-based. To be noted: Staphylococcus aureus sp. 1130, tube dilution; read-out: MIC.
From the text: as §3, §2

The subject of another assay is Streptococcus sp. 80. Put plainly: in vitro tube dilution test (MIC). To be noted: Streptococcus sp. 80, tube dilution; read-out: MIC. It counts as cell-based.
From the text: as §2

Values after ≈ are worked out from the molar mass of the structure shown. Some results are limits rather than exact numbers.

As usually defined, the MIC is the lowest concentration that inhibits growth of the organism. As for `NC(=O)c1cn(Cc2ccccc2)nc1[N+](=O)[O-]` [Compound 18, 1-benzyl-3-nitro-4-pyrazolecarboxamide], the MIC in the assay with Mycoplasma gallisepticum stood at 6.25 µg/mL (≈ 25.4 µM); in the assay on Escherichia coli it was 12.5 µg/mL (≈ 50.8 µM); in the assay on Pasteurella multocida, 12.5 µg/mL (≈ 50.8 µM); in the assay on Vibrio coli 3811, 50 µg/mL (≈ 203 µM); in the assay with Salmonella dublin, 12.5 µg/mL (≈ 50.8 µM); in assay [1] it was 6.25 µg/mL (≈ 25.4 µM). In the assay with Streptococcus sp. 80, the MIC came to 50 µg/mL (≈ 203 µM). The responders at 60 mg/kg with Salmonella typhimurium is 70%.
Take `N#Cc1cn(CCCCl)nc1[N+](=O)[O-]` [Compound 83, 1-(3-chloropropyl)-3-nitro-4-pyrazolecarbonitrile]: the minimal inhibitory concentration (MIC) with Mycoplasma gallisepticum is 50 µg/mL (≈ 233 µM); in the assay with Escherichia coli, greater than 50 µg/mL; in the assay with Pasteurella multocida it was greater than 50 µg/mL; in the assay on Vibrio coli 3811 it was 25 µg/mL (≈ 116 µM); in the assay with Salmonella dublin, greater than 50 µg/mL; in assay [1], greater than 50 µg/mL. Further, the minimum inhibitory concentration (MIC) with Streptococcus sp. 80 was greater than 50 µg/mL. The responders at 60 mg/kg in the assay on Salmonella typhimurium is 80%.
As for `CC(C)n1cc(C(N)=O)c([N+](=O)[O-])n1` [Compound 64, 1-isopropyl-3-nitro-4-pyrazolecarboxamide], the MIC in the assay with Mycoplasma gallisepticum is 50 µg/mL (≈ 252 µM); in the assay with Escherichia coli it was 25 µg/mL (≈ 126 µM); in the assay with Pasteurella multocida it was 50 µg/mL (≈ 252 µM); in the assay on Vibrio coli 3811 it was greater than 50 µg/mL; with Salmonella dublin it was 12.5 µg/mL (≈ 63.1 µM); in assay [1] it was 50 µg/mL (≈ 252 µM). For the same compound, the MIC in the assay with Streptococcus sp. 80 was greater than 50 µg/mL. Moreover, the responders at 60 mg/kg with Salmonella typhimurium is 60%.
For `CCCn1cc(C(N)=O)c([N+](=O)[O-])n1` [Compound 38, 3-nitro-1-propyl-4-pyrazolecarboxamide], the responders at 60 mg/kg in the assay on Salmonella typhimurium was 80%.
As to `N#Cc1cn(CCCl)nc1[N+](=O)[O-]` [Compound 33, 1-(2-chloroethyl)-3-nitro-4-pyrazolecarbonitrile], the MIC was greater than 50 µg/mL in the assay on Mycoplasma gallisepticum; 100 µg/mL (≈ 499 µM) with Escherichia coli; 12.5 µg/mL (≈ 62.3 µM) in the assay on Vibrio coli 3811; 100 µg/mL (≈ 499 µM) in the assay on Salmonella dublin; 100 µg/mL (≈ 499 µM) in assay [1]; 100 µg/mL (≈ 499 µM) in the assay on Streptococcus sp. 80. Moreover, the responders at 60 mg/kg in the assay on Salmonella typhimurium is 80%.
In the case of `Cc1ccc(C(=O)OCCn2cc(C(N)=O)c([N+](=O)[O-])n2)cc1` [Compound 76, [2-(4-carbamoyl-3-nitropyrazol-1-yl)ethyl] p-toluate], the responders at 60 mg/kg with Salmonella typhimurium is 100%.
In the case of `NC(=O)c1cn(CCCl)nc1[N+](=O)[O-]` [Compound 52, 1-(2-chloroethyl)-3-nitro-4-pyrazolecarboxamide], the MIC in the assay on Mycoplasma gallisepticum is greater than 50 µg/mL; with Escherichia coli, 3.12 µg/mL (≈ 14.3 µM); in the assay with Pasteurella multocida, 12.5 µg/mL (≈ 57.2 µM); in the assay on Vibrio coli 3811, 25 µg/mL (≈ 114 µM); in the assay on Salmonella dublin, 3.12 µg/mL (≈ 14.3 µM); in assay [1] it was greater than 1.56 µg/mL. Moreover, the minimum inhibitory concentration (MIC) in the assay with Streptococcus sp. 80 came to 50 µg/mL (≈ 229 µM). For the same compound, the responders at 60 mg/kg with Salmonella typhimurium was 80%.
As to `NC(=O)c1cn(CCCO)nc1[N+](=O)[O-]` [Compound 62, 1-(3-hydroxypropyl)-3-nitro-4-pyrazolecarboxamide], the MIC with Mycoplasma gallisepticum came out at 1.56 µg/mL (≈ 7.28 µM); in the assay on Escherichia coli, 6.25 µg/mL (≈ 29.2 µM); in the assay on Pasteurella multocida it was 6.25 µg/mL (≈ 29.2 µM); in the assay on Vibrio coli 3811 it was 12.5 µg/mL (≈ 58.4 µM); with Salmonella dublin it was 3.12 µg/mL (≈ 14.6 µM); in assay [1] it was 50 µg/mL (≈ 233 µM). The MIC with Streptococcus sp. 80 came out at 50 µg/mL (≈ 233 µM). The responders at 60 mg/kg in the assay on Salmonella typhimurium was 70%.
Consider `CS(=O)(=O)CCn1cc(C(N)=O)c([N+](=O)[O-])n1` [Compound 66, 1-[2-(methylsulfonyl)ethyl]-3-nitro-4-pyrazolecarboxamide], for which the minimal inhibitory concentration (MIC) in the assay on Mycoplasma gallisepticum was 50 µg/mL (≈ 191 µM); in the assay on Escherichia coli it was 50 µg/mL (≈ 191 µM); with Pasteurella multocida, 12.5 µg/mL (≈ 47.7 µM); in the assay on Vibrio coli 3811, greater than 50 µg/mL; in the assay on Salmonella dublin it was greater than 50 µg/mL; in assay [1], 25 µg/mL (≈ 95.3 µM). Also, in the assay with Streptococcus sp. 80, the minimum inhibitory concentration (MIC) was found to be 25 µg/mL (≈ 95.3 µM). Besides, the responders at 60 mg/kg in the assay with Salmonella typhimurium is 40%.
For `NC(=O)c1cn(CCOC(=O)c2cccc(Cl)c2)nc1[N+](=O)[O-]` [Compound 99, 2-(4-carbamoyl-3-nitropyrazol-1-yl)ethyl m-chlorobenzoate], the responders at 60 mg/kg in the assay on Salmonella typhimurium was 80%.

Source of the values: patent US4145554A, “3-Nitropyrazole derivatives” (Eli Lilly and Company, priority 1977, dated 1979).
